Series [1] deals with KB cell. The class given is cell-based, human. The note with it: for Activity in μg/ml (ED50 = concentration causing 50% inhibition of growth): kb cells.
For series [2], the system named is pigeons. The note with it: in vivo, po.
Series [3] deals with pigeons. Conditions: in vivo.
For series [4], the system named is mice. Conditions: mouse, in vivo, ip.

Take `CCC(=O)OC1C2OC3C=C(C)C(OC(=O)CC(C)C)CC3(COC(C)=O)C(C)(C1OC(C)=O)C21CO1` (stereo not shown) [PT-2]: in series [1], the “Activity in μg/ml (ED50 = concentration causing 50% inhibition of growth)” value is 10^-8 μg/ml.
In the case of `CC(=O)OCC12CC(OC(=O)CC(C)C)C(C)=CC1OC1C(OC(=O)c3ccccc3)C(OC(C)=O)C2(C)C12CO2` (stereo not shown) [BzT-2], the “Activity in μg/ml (ED50 = concentration causing 50% inhibition of growth)” value in series [1] worked out at 10 µg/mL.
Take `CC(=O)OCC12CC(OC(=O)CC(C)C)C(C)=CC1OC1C(OC(C)=O)C(OC(C)=O)C2(C)C12CO2` (stereo not shown) [AT-2]: the entries for the “toxicity relative to T-2 toxin” value in series [2] and in series [4] were “less than 1/6” and “less than 1/2”, respectively. For the same molecule, the “times more active than T-2 toxin” value in series [1] is recorded as “about 5,000 times”. For the same molecule, the “Activity in μg/ml (ED50 = concentration causing 50% inhibition of growth)” value in series [1] is listed as 10^-8 μg/ml. Also, in series [3], the vomiting result is “virtually completely eliminated”.
